Consider five compounds from patent publication US20240294551A1 (AMGEN INC., priority 2022, published 2024).

One experiment deals with MIA PaCa-2 cells. Nature of the experiment: MIA PaCa-2 CTG Assay (CellTiter-Glo cell viability). The class given is cell-based, human. The settings on record: Homo sapiens; Mia PaCa-2, 72 h; second value of the cell; read-out: G12D/C/V Cell Proliferation CTG (72 h) Mia PaCa-2. The procedure, abridged:
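IC50 values come from a 4-parameter logistic fit of CellTiter-Glo luminescence, normalized to DMSO control, after 72 h compound exposure at 37° C, 5% CO2. Cells grew in RPMI 1640 plus 10% FBS and were seeded at 1.67E+04 cells/mL one night before dosing.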
On the technique in general: In ATP-based viability assays light output follows the ATP content of the culture.

In another experiment the test system is AsPC-1 cells. Nature of the experiment: AsPC-1 CTG Assay (CellTiter-Glo cell viability). Conditions: Homo sapiens, ASPC1, 72 h, AsPC-1, 72 h; first value of the cell; read-out: G12D/C/V Cell Proliferation CTG (72 h) AsPC-1. It is filed as cell-based, human. In a few lines: (§1)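 IC50 values derive from 4-parameter logistic fits of CellTiter-Glo luminescence, expressed relative to DMSO. Compound dilution series were applied to overnight-seeded AsPC-1 or SW620 cells (RPMI 1640, 10% FBS) for 72 h at 37 °C, 5% CO2.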

Experiment [1] deals with Phosphorylation of ERK1/2 in AsPC-1 cells. Nature of the experiment: Phospho-ERK1/2 MSD Assay. It is filed as cell-based, human. Conditions: Homo sapiens, ASPC1, 2 h, read-out: 2 h p-ERK (AsPC-1 cells), IC50. In a few lines:
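Read-out: MSD electrochemiluminescent detection of phosphorylated ERK1/2 in whole-cell lysates, fitted to a 4-parameter logistic curve for IC50. Prior to lysis, AsPC-1 cells (25,000 per well) received a 2 h compound dose-response at 37 °C.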

In the next experiment the test system is SW620 cells. Nature of the experiment: SW620 CTG Assay (CellTiter-Glo cell viability). It is filed as cell-based, human. The settings on record: Homo sapiens, SW-620; SW620, 72 h; third value of the cell; read-out: G12D/C/V Cell Proliferation CTG (72 h) SW620. In a few lines:
as §1

In experiment [2] the target is His-tagged KRAS G12D protein (Homo sapiens (Human), UniProt P01116, G12D). Nature of the experiment: KRAS G12D TR-FRET Assay. It is filed as binding. Conditions: read-out: KRAS G12D Binding IC50. The procedure, abridged: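 Each incubation ran at room temperature: enzyme with compound for 30 minutes, peptide for one hour, and detection reagents (0.4 nM europium anti-6×His, 5 nM streptavidin-d2) for one hour more. Protein and peptide stocks were each diluted to 20 nM before addition.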
Sequence of His-tagged KRAS G12D protein (P01116 other isoform, or with tags, fused parts or gaps G12D): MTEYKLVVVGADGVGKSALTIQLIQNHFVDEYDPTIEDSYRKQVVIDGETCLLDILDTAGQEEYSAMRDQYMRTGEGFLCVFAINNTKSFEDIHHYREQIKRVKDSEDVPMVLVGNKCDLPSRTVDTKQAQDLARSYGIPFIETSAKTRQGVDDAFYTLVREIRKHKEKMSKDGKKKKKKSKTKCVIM

Experiment [3] addresses GDP-bound KRAS protein (aa 1-169), containing both G12D and C118A amino acid substitutions (Homo sapiens (Human), UniProt P01116, C118A/G12D). The experiment can be described thus: KRAS G12D Coupled Nucleotide Exchange Assay. The class given is biochemical. The settings on record: read-out: KRAS G12D Coupled Exchange IC50.

Sequence of GDP-bound KRAS protein (aa 1-169), containing both G12D and C118A amino acid substitutions (P01116 other isoform, or with tags, fused parts or gaps G12D/C118A): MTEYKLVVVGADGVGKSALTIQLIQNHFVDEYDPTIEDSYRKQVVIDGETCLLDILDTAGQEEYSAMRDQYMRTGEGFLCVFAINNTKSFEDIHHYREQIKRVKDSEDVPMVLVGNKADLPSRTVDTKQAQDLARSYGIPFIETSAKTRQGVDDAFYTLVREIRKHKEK

On to `Fc1c2ncc3c(nc(OC[C@@]45CCCN4C[C@H](F)C5)nc13)N1CCC[C@@](F)(COCCCCc3c(Cl)cc4[nH]ncc4c3-2)C1` [Example 151, (17S)-9-chloro-17,30-difluoro-24-(((2R,7aS)-2-fluorotetrahydro-1H-pyrrolo[1,2-a]pyrrol-7a(5H)-yl)methoxy)-15-oxa-5,6,21,23,25,29-hexaazahexacyclo[24.3.1.1~17,21~.0~2,10~.0~3,7~.0~22,27~]hentriaconta-1(30),2,4,7,9,22,24,26,28-nonaene], for which the IC50 in the experiment on MIA PaCa-2 cells stood at 70 nM; with AsPC-1 cells it was 200 nM; in experiment [1], 13 nM; in the experiment with SW620 cells, 38.7 nM; in experiment [2] it was 4 nM; in experiment [3], 2 nM.
`O=C1OCCCc2c(Cl)cc3[nH]ncc3c2-c2ncc3c(nc(OC[C@@]45CCCN4C[C@H](F)C5)nc3c2F)N2CC[C@H]3CCN1[C@H]3C2` [Example 177, (28S,32R)-18-chloro-33-fluoro-4-(((2R,7aS)-2-fluorotetrahydro-1H-pyrrolo[1,2-a]pyrrol-7a(5H)-yl)methoxy)-23-oxa-1,3,5,9,14,15,25-heptaazaheptacyclo[23.5.2.1~6,10~.0~2,7~.0~11,19~.0~12,16~.0~28,32~]tritriaconta-2,4,6,8,10(33),11,13,16,18-nonaen-24-one]: the IC50 came to 100 nM in the experiment on MIA PaCa-2 cells; 178 nM in the experiment on AsPC-1 cells; 16.3 nM in experiment [1]; 39 nM in the experiment on SW620 cells; 3 nM in experiment [2]; 3 nM in experiment [3].
Consider `Cc1cc2[nH]ncc2c2c1CCCOC(=O)O[C@]1(C)COCCN(C1)c1nc(OC[C@@H]3CCCN3C)nc3c(F)c-2ncc13` [Example 183, (26S)-32-fluoro-18,26-dimethyl-4-(((2S)-1-methyl-2-pyrrolidinyl)methoxy)-23,25,28-trioxa-1,3,5,9,14,15-hexaazahexacyclo[24.4.1.1~6,10~.0~2,7~.0~11,19~.0~12,16~]dotriaconta-2,4,6,8,10(32),11,13,16,18-nonaen-24-one], for which the IC50 in the experiment on MIA PaCa-2 cells is 50 nM; in the experiment with AsPC-1 cells, 164 nM; in experiment [1] it was 49.3 nM; in the experiment with SW620 cells it was 44 nM; in experiment [2], 8 nM; in experiment [3], 4 nM.
As for `O=C1OCCCc2c(Cl)cc3[nH]ncc3c2-c2ncc3c(nc(OCC45CCCN4CCC5)nc3c2F)N2CCOC[C@H](C2)O1` [Example 198, (26S)-18-chloro-32-fluoro-4-(tetrahydro-1H-pyrrolo[1,2-a]pyrrol-7a(5H)-ylmethoxy)-23,25,28-trioxa-1,3,5,9,14,15-hexaazahexacyclo[24.4.1.1~6,10~.0~2,7~.0~11,19~.0~12,16~]dotriaconta-2,4,6,8,10(32),11,13,16,18-nonaen-24-one], the IC50 amounted to 16 nM in the experiment on MIA PaCa-2 cells; 108 nM with AsPC-1 cells; 8.1 nM in experiment [1]; 14 nM in the experiment on SW620 cells; 2 nM in experiment [2]; 1 nM in experiment [3].
Turning to `Fc1cc2[nH]ncc2c2c1CCCCOC[C@H]1CCCCN(C1)c1nc(OC[C@@]34CCCN3C[C@H](F)C4)nc3c(F)c-2ncc13` [Example 240, (26S)-18,32-difluoro-4-(((2R,7aS)-2-fluorotetrahydro-1H-pyrrolo[1,2-a]pyrrol-7a(5H)-yl)methoxy)-24-oxa-1,3,5,9,14,15-hexaazahexacyclo[24.4.1.1~6, 10~.0~2,7~.0~11,19~.0~12,16~]dotriaconta-2,4,6(32),7,9,11,13,16,18-nonaene], the IC50 was determined as 140 nM in the experiment with MIA PaCa-2 cells; 230 nM with AsPC-1 cells; 21.9 nM in experiment [1]; 80 nM with SW620 cells; 3 nM in experiment [2]; 2 nM in experiment [3].
